Measured values from patent publication US20200030355A1, “COMBINATION THERAPY FOR TREATING CANCER” (Epizyme, Inc., priority 2014, published 2020).

What was measured:
MOLM-13 (MLL-AF9) = test: Compound A2 7-day pre-treatment, then Compound A2 and Compound 1 for 3 days, CellTiter-Glo (Example 9); assay type: cell-based, human; details: Compound A2 7 days, then both for 3 days, n=2
Description: (§1) At the endpoint, cell viability was measured via ATP content using CellTiter-Glo®.

SKM-1 (non-MLL-r) = test: as above; assay type: cell-based, human; details: Compound A2 7 days, then both for 3 days, n=2
Description: as §1

ERK1 = ERK1 (Homo sapiens, UniProt P27361); test: ERK kinase activity inhibition; assay type: biochemical
Description: (§2) Compound 1 is a potent inhibitor of the kinase activities of ERK1 and ERK2. In some embodiments, Compound 1 inhibits one or both of ERK1 and ERK2 with an IC50 of about 10 to about 20 nM.
(§3) The activity of Compound 1, and pharmaceutically acceptable salts thereof, as an inhibitor of one or both of an ERK1 and ERK2 kinase, or a mutant thereof, may be assayed in vitro, in vivo or in a cell line. In vitro assays include assays that determine inhibition of downstream phosphorylation, changes in gene expression, subsequent functional markers and consequences, and/or kinase activity of one or both of activated ERK1 and ERK2 kinase, or a mutant thereof. Alternate in vitro assays quantitate the ability of the test compound to bind to one or both of ERK1 and ERK2. Test compound binding may be measured by radiolabeling the test compound prior to binding, isolating one or both of the compound/ERK1 complex and the compound/ERK2 complex, and determining the amount of radiolabel bound. Alternatively, test compound binding may be determined by running a competition experiment where test compounds are incubated with one or both of ERK1 and ERK2 kinase bound to known radioligands. […]

ERK2 = ERK2 (Homo sapiens, UniProt P28482); test: ERK kinase activity inhibition; assay type: biochemical
Description: as §2, §3

258 kinases = test: Kinase selectivity analysis; assay type: biochemical; details: analysis of 258 kinases
Description: as §2

[1] = tested on: BRAF-mutant cancer cell lines; test: Cancer cell panel screening, anti-proliferative activity; assay type: cell-based; details: 25 of 27 BRAF-mutant cancer cell lines tested
Excerpt: (§4) Bioinformatic analyses indicate that tumors with activating mutations of BRAF are particularly sensitive to Compound 1. […] In the same cancer cell panel screening, 28 of 37 (76%) KRAS-mutant cancer cell lines were sensitive to Compound 1. […] This is of particular importance as resistance to BRAF inhibition has been commonly observed in human patients. […] Without wishing to being bound by any particular theory, it is believed that inhibitors of one or both of ERK1 and ERK2, or a mutant thereof, such as Compound 1, or pharmaceutically acceptable salts thereof, provide effective salvage therapy.

[2] = tested on: KRAS-mutant cancer cell lines; test: as above; assay type: cell-based; details: 28 of 37 KRAS-mutant cancer cell lines
Excerpt: as §4

[3] = tested on: A375 melanoma cells that have acquired in vitro resistance to BRAF and MEK inhibition; test: Inhibitory activity against resistant melanoma cells; assay type: cell-based
Excerpt: as §4

Chain of ERK1 (P27361 whole entry): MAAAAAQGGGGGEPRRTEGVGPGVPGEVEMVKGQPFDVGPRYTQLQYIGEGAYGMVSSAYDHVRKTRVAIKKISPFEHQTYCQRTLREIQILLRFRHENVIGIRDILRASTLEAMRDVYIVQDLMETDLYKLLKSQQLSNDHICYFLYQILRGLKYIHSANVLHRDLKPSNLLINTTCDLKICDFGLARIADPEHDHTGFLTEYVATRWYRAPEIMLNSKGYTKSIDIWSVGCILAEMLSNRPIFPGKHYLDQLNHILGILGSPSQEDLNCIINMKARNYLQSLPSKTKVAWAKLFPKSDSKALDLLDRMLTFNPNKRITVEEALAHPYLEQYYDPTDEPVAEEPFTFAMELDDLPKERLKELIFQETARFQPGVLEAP
Chain of ERK2 (P28482 whole entry): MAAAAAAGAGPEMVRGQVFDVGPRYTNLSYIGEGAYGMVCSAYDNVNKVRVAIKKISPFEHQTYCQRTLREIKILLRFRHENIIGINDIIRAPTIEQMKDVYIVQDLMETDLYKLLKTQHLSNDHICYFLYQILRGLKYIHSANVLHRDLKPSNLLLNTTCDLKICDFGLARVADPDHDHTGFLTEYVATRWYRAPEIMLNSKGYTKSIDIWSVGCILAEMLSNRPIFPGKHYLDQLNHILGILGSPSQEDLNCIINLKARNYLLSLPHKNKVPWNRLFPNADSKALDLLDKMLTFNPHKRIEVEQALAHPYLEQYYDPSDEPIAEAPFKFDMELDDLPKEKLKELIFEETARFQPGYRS

Q: Which results are given for C=CC(=O)Nc1cc(C)ccc1Nc1nc(Nc2cc(OC)ncc2C)ncc1C(F)(F)F [Compound 1, N-(2-((2-((2-methoxy-5-methylpyridin-4-yl)amino)-5-(trifluoromethyl)pyrimidin-4-yl)amino)-5-methylphenyl)acrylamide]?
A: Combination (Compound A2 and Compound 1) (MOLM-13 (MLL-AF9)): Synergy; Combination (Compound A2 and Compound 1) (SKM-1 (non-MLL-r)): No benefit; IC50 (ERK1): 10 to 20 nM; IC50 (ERK2): 10 to 20 nM; Kinase selectivity profile (258 kinases): good overall kinase selectivity profile; Cell lines sensitive to Compound 1 inhibition (GI50 <1 μM) [1]: 93%; Cell lines sensitive to Compound 1 [2]: 76%; Activity against resistant A375 melanoma cells [3]: inhibitory activity
